Results published in US6423718B1, “4,4-disubstituted-3,4-dihydro-2(1H)-quinazolinones useful as HIV reverse transcriptase inhibitors” (Bristol-Myers Squibb Pharma Company, priority 1997, dated 2002).
≈ marks a conversion by molar mass, not a printed value.

What was measured:
[1] = test system: HIV-1 (RF); experiment: HIV RNA assay: microplate based compound evaluation in HIV-1 infected MT-2 cells (IC90); assay type: cell-based; details: Human immunodeficiency virus 1, MT2, 72 h; HIV-1 (RF) infected MT-2 cells, 3 days of culture; virus dilutions selected to standardize the inoculum; read-out: IC90 value (concentration of compound required to reduce the HIV RNA level by 90%)
Protocol: Plasmid pDAB 72 containing both gag and pol sequences of BH10 (bp 113-1816) cloned into PTZ 19R was prepared according to Erickson-Viitanen et al. AIDS Research and Human Retroviruses 1989, 5, 577. The plasmid was linearized with Ban HI prior to the generation of in vitro RNA transcripts using the Riboprobe Gemini system II kit (Promega) with T7 RNA polymerase. Synthesized RNA was purified by treatment with RNase free DNAse (Promega), phenol-chloroform extraction, and ethanol precipitation. RNA transcripts were dissolved in water, and stored at −70° C. The concentration of RNA was determined from the A260.
Biotinylated capture probes were purified by HPLC after synthesis on an Applied Biosystems (Foster City, Calif.) DNA synthesizer by addition of biotin to the 5′ terminal end of the oligonucleotide, using the biotin-phosphoramidite reagent of Cocuzza, Tet. Lett. 1989, 30, 6287. […]
MT-2 and MT-4 cells were maintained in RPMI 1640 supplemented with 5% fetal calf serum (FCS) for MT-2 cells or 10% FCS for MT-4 cells, 2 mM L-glutamine and 50 μg/mL gentamycin, all from Gibco. […] Infectious titers of HIV-1 (RF) stocks were 1-3×10^7 PFU (plaque forming units)/mL as measured by plaque assay on MT-2 cells (see below). […]

| SMILES | melting point | IC90 [1] |
| --- | --- | --- |
| COc1ccc2c(c1)C(C#CC1CC1)(C(F)(F)F)NC(=O)N2 (racemic) [Example 6, (+/−)-4-Cyclopropylethynyl-6-methoxy-4-trifluoromethyl-3,4-dihydro-2(1H)-quinazolinone] | 208 °C | – |
| CC(C)CCC1(C(F)(F)F)NC(=O)Nc2ccc(F)c(F)c21 (racemic) [Example 15, (+/−)-5,6-Difluoro-4-isopentyl-4-trifluoromethyl-3,4-dihydro-2(1H)-quinazolinone] | 192 to 193 °C | – |
| O=C1Nc2ccc(F)cc2C(C#CC2CC2)(C(F)(F)F)N1 (racemic) [Example 17, (+/−)-4-Cyclopropylethynyl-6-fluoro-4-trifluoromethyl-3,4-dihydro-2(1H)-quinazolinone] | 155 °C | – |
| CC(C)CCC1(C(F)(F)F)NC(=O)Nc2ccc(F)cc21 (racemic) [Example 22, (+/−)-6-Fluoro-4-isopentyl-4-trifluoromethyl-3,4-dihydro-2(1H)-quinazolinone] | 179 °C | – |
| CCCCC1(C(F)(F)F)NC(=O)Nc2ccc(F)cc21 (racemic) [Example 24, (+/−)-4-Butyl-6-fluoro-4-trifluoromethyl-3,4-dihydro-2(1H)-quinazolinone] | 198 °C | – |
| O=C1Nc2ccc(F)cc2C(CCc2ccccc2)(C(F)(F)F)N1 (racemic) [Example 25, (+/−)-6-Fluoro-4-phenylethyl-4-trifluoromethyl-3,4-dihydro-2(1H)-quinazolinone] | 98 °C | – |
| Nc1ccn([C@H]2CC[C@@H](CO)O2)c(=O)n1 [ddC, 2′,3′-dideoxycytidine] | – | 0.2 µg/mL (≈ 0.947 µM) |
